Key:
[1] = target: Human Fibroblast STROMELYSIN (Homo sapiens, UniProt P08254); experiment: biochemical; details: SE in parentheses
GELATINASE = target: T1, GELATINASE (Homo sapiens, UniProt P08253); experiment: inhibition of cleavage of fluorogenic peptide DNP-Pro-Leu-Gly-Leu-Trp-Ala-(D)-Arg-NH2 by gelatinase; type: biochemical; details: Human Fibroblast; SE in parentheses
T1 sequence (P08253 110-660): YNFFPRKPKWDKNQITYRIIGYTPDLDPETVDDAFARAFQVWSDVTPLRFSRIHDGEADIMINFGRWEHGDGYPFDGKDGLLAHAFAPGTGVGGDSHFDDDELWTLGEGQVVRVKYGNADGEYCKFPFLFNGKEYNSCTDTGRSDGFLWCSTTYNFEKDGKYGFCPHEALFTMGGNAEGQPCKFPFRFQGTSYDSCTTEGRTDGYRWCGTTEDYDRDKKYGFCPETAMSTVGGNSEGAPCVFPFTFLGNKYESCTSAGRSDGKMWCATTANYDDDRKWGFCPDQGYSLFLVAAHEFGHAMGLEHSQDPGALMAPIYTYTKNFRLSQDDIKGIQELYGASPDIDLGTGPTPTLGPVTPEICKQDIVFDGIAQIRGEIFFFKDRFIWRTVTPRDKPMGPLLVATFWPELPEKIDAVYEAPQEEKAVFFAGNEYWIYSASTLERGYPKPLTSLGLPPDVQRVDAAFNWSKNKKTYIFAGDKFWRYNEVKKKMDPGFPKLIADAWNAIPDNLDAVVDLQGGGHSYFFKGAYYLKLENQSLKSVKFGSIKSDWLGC

COLLAGENASE = target: T2, COLLAGENASE (Homo sapiens, UniProt P03956); experiment: inhibition of cleavage of fluorogenic peptide DNP-Pro-Leu-Gly-Leu-Trp-Ala-(D)-Arg-NH2 by collagenase; type: biochemical; details: Human Fibroblast; SE in parentheses where printed
T2 sequence (P03956 100-469): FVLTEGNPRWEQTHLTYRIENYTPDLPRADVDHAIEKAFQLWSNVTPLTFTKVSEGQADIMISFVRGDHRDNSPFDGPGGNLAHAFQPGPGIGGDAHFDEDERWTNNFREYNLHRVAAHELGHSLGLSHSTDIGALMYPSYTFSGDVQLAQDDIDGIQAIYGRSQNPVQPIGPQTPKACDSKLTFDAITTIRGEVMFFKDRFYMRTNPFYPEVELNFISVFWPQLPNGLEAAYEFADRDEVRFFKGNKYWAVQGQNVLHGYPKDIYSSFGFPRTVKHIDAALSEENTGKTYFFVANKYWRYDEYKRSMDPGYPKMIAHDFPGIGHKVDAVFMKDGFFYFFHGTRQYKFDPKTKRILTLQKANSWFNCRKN

[2] = target: human rheumatoid synovial collagenase; details: cited from earlier work
[3] = target: rabbit bone proteoglycanase; details: cited from earlier work

Human Fibroblast STROMELYSIN, sequence (P08254 100-477): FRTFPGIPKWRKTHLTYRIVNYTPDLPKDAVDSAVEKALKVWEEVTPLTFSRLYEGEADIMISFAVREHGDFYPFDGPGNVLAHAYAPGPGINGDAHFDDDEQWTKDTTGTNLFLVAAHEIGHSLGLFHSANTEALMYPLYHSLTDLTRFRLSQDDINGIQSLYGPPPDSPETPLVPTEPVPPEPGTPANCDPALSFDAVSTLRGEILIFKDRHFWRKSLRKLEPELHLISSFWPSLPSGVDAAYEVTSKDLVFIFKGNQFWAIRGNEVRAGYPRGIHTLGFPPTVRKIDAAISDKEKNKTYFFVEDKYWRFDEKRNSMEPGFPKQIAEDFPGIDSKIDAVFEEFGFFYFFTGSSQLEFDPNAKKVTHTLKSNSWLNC

SMILES | Ki [1] | Ki (GELATINASE) | Ki (COLLAGENASE) | IC50 [2] | IC50 [3]
CC(C)C[C@H](NC(=O)C(CCc1ccccc1)CP(=O)(O)CCCCN1C(=O)c2ccccc2C1=O)C(=O)Nc1ccccc1 (stereo partly drawn) [(CH2)4 NPhth, (2-(((4-(1,3-Dihydro-1,3-dioxo-2H-isoindol-2-yl)butyl)hydroxyphosphinyl)methyl)-4-phenylbutanoyl)-L-leucine N-phenylamide] |  | 0.026 µM | 1000 nM |  | 
CC(=O)N1CCC[C@H]1C(=O)N[C@@H](C)C(=O)N[C@@H](C)P(=O)(O)CC(CCc1ccccc1)C(=O)N[C@@H](CC(C)C)C(=O)Nc1ccccc1 (stereo partly drawn) [(R)CH(CH3)NHAlaProAc, [[Hydroxy[1(R)-[N-(N-acetyl-L-prolyl-L-alanyl)-amino]-ethyl]-phosphinyl]-methyl]-4-phenylbutanoyl-L-leucyl N-phenylamide] | 0.0061 µM | 0.0026 µM | 2900 nM |  | 
CNC(=O)[C@H](Cc1ccc(OC)cc1)NC(=O)[C@H](CC(C)C)NC(CCNC(=O)OCc1ccccc1)C(=O)O (stereo partly drawn) [N-[3-(benzyloxycarbonyl)amino-1-carboxy-n-propyl]-L-leucyl-O-methyl-L-tyrosine, N-methylamide] |  |  |  | 800 nM | 500 nM

Continued, in another order:

Ki [1] | Ki (GELATINASE) | SMILES | Ki (COLLAGENASE) | IC50 [2] | IC50 [3]
0.022 µM | 0.0056 µM | CC(C)C[C@H](NC(=O)C(CCc1ccccc1)CP(=O)(O)CCCCNC(=O)NC(C)C)C(=O)Nc1ccccc1 (some centres unmarked) [(CH2)4 NCHCONH-i-C3 H7] |  |  | 
0.019 µM | 0.034 µM | CC(C)COC(=O)NCCCCP(=O)(O)CC(CCc1ccccc1)C(=O)N[C@@H](CC(C)C)C(=O)Nc1ccccc1 (some centres unmarked) [(CH2)4 NCO2 -i-C4 H4] |  |  | 

Reference: patent publication US5679700A, “Substituted phosphinic acid-containing peptidyl derivatives as antidegenerative agents” (Merck & Co., Inc., priority 1995, dated 1997)
